Measurements published in patent publication US6559140B2 (Abbott Laboratories, priority 2000, dated 2003).
pKi: −log10 of the molar value.

Molecular target: H3 receptor (Rattus norvegicus, UniProt Q9QYN8)
Assay: H3 receptor binding, (3H)-N-α-methylhistamine displacement in rat cortical membranes
Conditions: male Sprague-Dawley rat brain cortical membranes, 30 minutes at 25° C., Cheng-Prusoff, geometric mean values of 2-10 separate experiments

H3 receptor, sequence (Q9QYN8 1-397 isoform Q9QYN8-3): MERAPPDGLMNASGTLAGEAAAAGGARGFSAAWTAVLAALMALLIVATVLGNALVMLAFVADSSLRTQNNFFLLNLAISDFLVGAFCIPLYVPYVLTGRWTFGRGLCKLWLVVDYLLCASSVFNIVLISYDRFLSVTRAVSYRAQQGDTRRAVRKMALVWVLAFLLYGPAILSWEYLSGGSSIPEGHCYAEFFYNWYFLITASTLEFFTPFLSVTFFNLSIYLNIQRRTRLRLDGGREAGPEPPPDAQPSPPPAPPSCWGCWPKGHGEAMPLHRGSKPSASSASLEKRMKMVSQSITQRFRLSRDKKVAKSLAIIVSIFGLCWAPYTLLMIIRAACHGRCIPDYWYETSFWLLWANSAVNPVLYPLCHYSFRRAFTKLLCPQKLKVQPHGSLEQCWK

Row | Compound | pKi
1 | C[C@@H](NC(=O)c1cccs1)C(=O)N1CCN(CCCOc2ccc(-c3noc(-c4cccc(C#N)c4)n3)c(F)c2)CC1 [Example 188, N-{(1R)-2-[4-(3-{4-[5-(3-cyanophenyl)-1,2,4-oxadiazol-3-yl]-3-fluorophenoxy}propyl)-1-piperazinyl]-1-methyl-2-oxoethyl}-2-thiophenecarboxamide] | 8.37
2 | C[C@@H](NC(=O)c1cccs1)C(=O)N1CCN(CCCOc2ccc(-c3noc(-c4cc(Cl)cc(Cl)c4)n3)c(F)c2)CC1 [Example 189, N-{(1R)-2-[4-(3-{4-[5-(3,5-dichlorophenyl)-1,2,4-oxadiazol-3-yl]-3-fluorophenoxy}propyl)-1-piperazinyl]-1-methyl-2-oxoethyl}-2-thiophenecarboxamide] | 7.29
3 | C[C@@H](NC(=O)c1ccc(Br)cc1)C(=O)N1CCN(CCCOc2ccc(C(=O)C3CC3)cc2)CC1 [Example 194, 4-bromo-N-[(1R)-2-(4-{3-[4-(cyclopropylcarbonyl)phenoxy]propyl}-1-piperazinyl)-1-methyl-2-oxoethyl]benzamide] | 8.93
4 | Cc1cc(C)cc(C(=O)N[C@H](C)C(=O)N2CCN(CCCOc3ccc(C(=O)C4CC4)cc3)CC2)c1 [Example 196, N-[(1R)-2-(4-{3-[4-(cyclopropylcarbonyl)phenoxy]propyl}-1-piperazinyl)-1-methyl-2-oxoethyl]-3,5-dimethylbenzamide] | 8.68
5 | COc1ccc(OC)c(C(=O)N[C@H](C)C(=O)N2CCN(CCCOc3ccc(C(=O)C4CC4)cc3)CC2)c1 [Example 197, N-[(1R)-2-(4-{3-[4-(cyclopropylcarbonyl)phenoxy]propyl}-1-piperazinyl)-1-methyl-2-oxoethyl]-2,5-dimethoxybenzamide] | 8.51

Now from value to compound:

Row | pKi | Compound
6 | 7.58 | Cc1cccc(-c2nc(-c3ccc(OCCCN4CCN(C(=O)[C@@H](C)NC(=O)c5cccs5)CC4)cc3F)no2)c1 [Example 187, N-{(1R)-2-[4-(3-{3-fluoro-4-[5-(3-methylphenyl)-1,2,4-oxadiazol-3-yl]phenoxy}propyl)-1-piperazinyl]-1-methyl-2-oxoethyl}-2-thiophenecarboxamide]
7 | 8.11 | C[C@@H](NC(=O)c1cccs1)C(=O)N1CCN(CCCOc2ccc(-c3noc(CCC(=O)N4CCCC4)n3)c(F)c2)CC1 [Example 190, N-((1R)-2-{4-[3-(3-fluoro-4-{5-[3-oxo-3-(1-pyrrolidinyl)propyl]-1,2,4-oxadiazol-3-yl}phenoxy)propyl]-1-piperazinyl}-1-methyl-2-oxoethyl)-2-thiophenecarboxamide]
8 | 7.82 | CCOC(=O)c1nc(-c2ccc(OCCCN3CCN(C(=O)[C@@H](C)NC(=O)c4cccs4)CC3)cc2F)no1 [Example 191, Ethyl 3-{2-fluoro-4-[3-(4-{(2R)-2-[(2-thienylcarbonyl)amino]propanoyl}-1-piperazinyl)propoxy]phenyl}-1,2,4-oxadiazole-5-carboxylate]
9 | 9.00 | Cc1ccccc1C(=O)N[C@H](C)C(=O)N1CCN(CCCOc2ccc(C(=O)C3CC3)cc2)CC1 [Example 192, N-[(1R)-2-(4-{3-[4-(cyclopropylcarbonyl)phenoxy]propyl}-1-piperazinyl)-1-methyl-2-oxoethyl]-2-methylbenzamide]
10 | 8.95 | COc1cccc(C(=O)N[C@H](C)C(=O)N2CCN(CCCOc3ccc(C(=O)C4CC4)cc3)CC2)c1 [Example 193, N-[(1R)-2-(4-{3-[4-(cyclopropylcarbonyl)phenoxy]propyl}-1-piperazinyl)-1-methyl-2-oxoethyl]-3-methoxybenzamide]
11 | 8.86 | C[C@@H](NC(=O)c1ccc(Oc2ccccc2)cc1)C(=O)N1CCN(CCCOc2ccc(C(=O)C3CC3)cc2)CC1 [Example 195]
12 | 7.59 | COc1ccc(-c2nc(-c3ccc(OCCCN4CCN(C(=O)[C@@H](C)NC(=O)c5cccs5)CC4)cc3F)no2)cc1 [Example 198, N-{(1R)-2-[4-(3-{3-fluoro-4-[5-(4-methoxyphenyl)-1,2,4-oxadiazol-3-yl]phenoxy}propyl)-1-piperazinyl]-1-methyl-2-oxoethyl}-2-thiophenecarboxamide]
13 | 8.32 | Tert-butyl (1R)-1-benzyl-2-(4-(3-(4-(cyclopropylcarbonyl)phenoxy)propyl)-1-piperazinyl)-2-oxoethylcarbamate [Example 79]
